PubChem BioAssay (NCI)
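The compound was tested at five concentrations on cells cultured in 96-well plates, with a 48-hour exposure period. GI50 is the concentration that inhibits growth by half. TGI denotes the concentration required for complete inhibition of growth.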

Tests used:
Test in all cases: NCI-60 cell line screen, 48 h
T-47D breast = test system: T-47D breast
SK-MEL-5 melanoma = test system: SK-MEL-5 melanoma
SK-OV-3 ovarian = test system: SK-OV-3 ovarian
UACC-257 melanoma = test system: UACC-257 melanoma
MOLT-4 leukemia = test system: MOLT-4 leukemia
HT29 colon = test system: HT29 colon
SN12C renal = test system: SN12C renal
NCI/ADR-RES ovarian = test system: NCI/ADR-RES ovarian
OVCAR-8 ovarian = test system: OVCAR-8 ovarian
786-0 renal = test system: 786-0 renal
CAKI-1 renal = test system: CAKI-1 renal
ACHN renal = test system: ACHN renal
SNB-75 CNS = test system: SNB-75 CNS
MDA-MB-231 breast = test system: MDA-MB-231 breast
OVCAR-4 ovarian = test system: OVCAR-4 ovarian
K-562 leukemia = test system: K-562 leukemia
SW-620 colon = test system: SW-620 colon
A549 NSCLC = test system: A549 NSCLC
U251 CNS = test system: U251 CNS
SF-268 CNS = test system: SF-268 CNS
COLO 205 colon = test system: COLO 205 colon
DU-145 prostate = test system: DU-145 prostate
MDA-MB-435 = test system: MDA-MB-435
CCRF-CEM leukemia = test system: CCRF-CEM leukemia
SNB-19 CNS = test system: SNB-19 CNS
KM12 colon = test system: KM12 colon
SK-MEL-2 melanoma = test system: SK-MEL-2 melanoma
HOP-92 NSCLC = test system: HOP-92 NSCLC
NCI-H23 lung = test system: NCI-H23 lung
EKVX NSCLC = test system: EKVX NSCLC
MDA-MB-468 breast = test system: MDA-MB-468 breast
M14 melanoma = test system: M14 melanoma
A498 renal = test system: A498 renal
SF-539 CNS = test system: SF-539 CNS
HS 578T breast = test system: HS 578T breast
NCI-H460 lung = test system: NCI-H460 lung
PC-3 prostate = test system: PC-3 prostate
NCI-H522 lung = test system: NCI-H522 lung
MCF7 breast = test system: MCF7 breast
OVCAR-5 ovarian = test system: OVCAR-5 ovarian
RPMI-8226 leukemia = test system: RPMI-8226 leukemia
BT-549 breast = test system: BT-549 breast
HOP-62 NSCLC = test system: HOP-62 NSCLC
IGROV1 ovarian = test system: IGROV1 ovarian
HL-60(TB) leukemia = test system: HL-60(TB) leukemia
UACC-62 melanoma = test system: UACC-62 melanoma
OVCAR-3 ovarian = test system: OVCAR-3 ovarian
LOX IMVI melanoma = test system: LOX IMVI melanoma
RXF 393 renal = test system: RXF 393 renal
UO-31 renal = test system: UO-31 renal
TK-10 renal = test system: TK-10 renal
SK-MEL-28 melanoma = test system: SK-MEL-28 melanoma
NCI-H226 lung = test system: NCI-H226 lung
HCT-116 colon = test system: HCT-116 colon
HCT-15 colon = test system: HCT-15 colon
MALME-3M melanoma = test system: MALME-3M melanoma
SR leukemia = test system: SR leukemia
SF-295 CNS = test system: SF-295 CNS
HCC-2998 colon = test system: HCC-2998 colon

Compound: CN(C(=O)c1ccc(C(C)(C)C)cc1)c1sc2c(c1C#N)CCC(=O)C2
- GI50 (T-47D breast): 1.83 µM
- TGI (T-47D breast): 4.07 µM
- GI50 (SK-MEL-5 melanoma): 2.07 µM
- TGI (SK-MEL-5 melanoma): 4.63 µM
- GI50 (SK-OV-3 ovarian): 17.9 µM
- TGI (SK-OV-3 ovarian): 34.1 µM
- GI50 (UACC-257 melanoma): 18 µM
- TGI (UACC-257 melanoma): 33.7 µM
- GI50 (MOLT-4 leukemia): 4.21 µM
- TGI (MOLT-4 leukemia): 23.5 µM
- GI50 (HT29 colon): 17.8 µM
- TGI (HT29 colon): 41 µM
- GI50 (SN12C renal): 14 µM
- TGI (SN12C renal): 27.2 µM
- GI50 (NCI/ADR-RES ovarian): 2.68 µM
- TGI (NCI/ADR-RES ovarian): 7.44 µM
- GI50 (OVCAR-8 ovarian): 9.16 µM
- TGI (OVCAR-8 ovarian): 39.6 µM
- GI50 (786-0 renal): 3.72 µM
- TGI (786-0 renal): 13.3 µM
- GI50 (CAKI-1 renal): 3.8 µM
- TGI (CAKI-1 renal): 17.6 µM
- GI50 (ACHN renal): 3.2 µM
- TGI (ACHN renal): 10.5 µM
- GI50 (SNB-75 CNS): 6.94 µM
- TGI (SNB-75 CNS): 24.4 µM
- GI50 (MDA-MB-231 breast): 2.84 µM
- TGI (MDA-MB-231 breast): 8.49 µM
- GI50 (OVCAR-4 ovarian): 2.64 µM
- TGI (OVCAR-4 ovarian): 8.45 µM
- GI50 (K-562 leukemia): 3.17 µM
- TGI (K-562 leukemia): 10.7 µM
- GI50 (SW-620 colon): 2.06 µM
- TGI (SW-620 colon): 4.17 µM
- GI50 (A549 NSCLC): 16.8 µM
- TGI (A549 NSCLC): 35.3 µM
- GI50 (U251 CNS): 1.82 µM
- TGI (U251 CNS): 3.9 µM
- GI50 (SF-268 CNS): 4.79 µM
- TGI (SF-268 CNS): 24.3 µM
- GI50 (COLO 205 colon): 19.6 µM
- TGI (COLO 205 colon): 37.2 µM
- GI50 (DU-145 prostate): 16.7 µM
- TGI (DU-145 prostate): 33.4 µM
- GI50 (MDA-MB-435): 5.8 µM
- TGI (MDA-MB-435): 21.1 µM
- GI50 (CCRF-CEM leukemia): 3.34 µM
- TGI (CCRF-CEM leukemia): 10.4 µM
- GI50 (SNB-19 CNS): 3.7 µM
- TGI (SNB-19 CNS): 14.7 µM
- GI50 (KM12 colon): 3.97 µM
- TGI (KM12 colon): 14.6 µM
- GI50 (SK-MEL-2 melanoma): 14.5 µM
- TGI (SK-MEL-2 melanoma): 28.7 µM
- GI50 (HOP-92 NSCLC): 3.51 µM
- TGI (HOP-92 NSCLC): 15.7 µM
- GI50 (NCI-H23 lung): 2.42 µM
- TGI (NCI-H23 lung): 6.56 µM
- GI50 (EKVX NSCLC): 3.49 µM
- TGI (EKVX NSCLC): 14 µM
- GI50 (MDA-MB-468 breast): 2.27 µM
- TGI (MDA-MB-468 breast): 5.63 µM
- GI50 (M14 melanoma): 3.57 µM
- TGI (M14 melanoma): 12.8 µM
- GI50 (A498 renal): 15.4 µM
- TGI (A498 renal): 29.4 µM
- GI50 (SF-539 CNS): 1.77 µM
- TGI (SF-539 CNS): 3.42 µM
- GI50 (HS 578T breast): 3.89 µM
- TGI (HS 578T breast): 28.1 µM
- GI50 (NCI-H460 lung): 13.1 µM
- TGI (NCI-H460 lung): 27.5 µM
- GI50 (PC-3 prostate): 2.72 µM
- TGI (PC-3 prostate): 8.32 µM
- GI50 (NCI-H522 lung): 1.75 µM
- TGI (NCI-H522 lung): 3.45 µM
- GI50 (MCF7 breast): 11.8 µM
- TGI (MCF7 breast): 32 µM
- GI50 (OVCAR-5 ovarian): 14 µM
- TGI (OVCAR-5 ovarian): 27.6 µM
- GI50 (RPMI-8226 leukemia): 2.93 µM
- GI50 (BT-549 breast): 1.98 µM
- TGI (BT-549 breast): 4.88 µM
- GI50 (HOP-62 NSCLC): 15.2 µM
- TGI (HOP-62 NSCLC): 32.1 µM
- GI50 (IGROV1 ovarian): 11.7 µM
- TGI (IGROV1 ovarian): 25 µM
- GI50 (HL-60(TB) leukemia): 8.84 µM
- TGI (HL-60(TB) leukemia): 30.3 µM
- GI50 (UACC-62 melanoma): 2.34 µM
- TGI (UACC-62 melanoma): 6.4 µM
- GI50 (OVCAR-3 ovarian): 2.43 µM
- TGI (OVCAR-3 ovarian): 5.9 µM
- GI50 (LOX IMVI melanoma): 2.11 µM
- TGI (LOX IMVI melanoma): 5.2 µM
- GI50 (RXF 393 renal): 1.96 µM
- TGI (RXF 393 renal): 4.53 µM
- GI50 (UO-31 renal): 2.94 µM
- TGI (UO-31 renal): 11.2 µM
- GI50 (TK-10 renal): 10.4 µM
- TGI (TK-10 renal): 23 µM
- GI50 (SK-MEL-28 melanoma): 11.2 µM
- TGI (SK-MEL-28 melanoma): 23.9 µM
- GI50 (NCI-H226 lung): 14.1 µM
- TGI (NCI-H226 lung): 38.1 µM
- GI50 (HCT-116 colon): 2.08 µM
- TGI (HCT-116 colon): 4.91 µM
- GI50 (HCT-15 colon): 2.04 µM
- TGI (HCT-15 colon): 4.13 µM
- GI50 (MALME-3M melanoma): 12.6 µM
- TGI (MALME-3M melanoma): 26.2 µM
- GI50 (SR leukemia): 2.28 µM
- TGI (SR leukemia): 7.1 µM
- GI50 (SF-295 CNS): 3.45 µM
- TGI (SF-295 CNS): 14 µM
- GI50 (HCC-2998 colon): 5.09 µM
- TGI (HCC-2998 colon): 16.6 µM
